From patent US6204293A, “Inhibitors of protein isoprenyl transferases” (University of Pittsburgh, priority 1998, dated 2001) come the findings set out here.

The structures appear in SMILES notation. Where a name gives a salt, the structure may show the parent alone.

T1 sequence (Q02293 whole entry, one chain of several): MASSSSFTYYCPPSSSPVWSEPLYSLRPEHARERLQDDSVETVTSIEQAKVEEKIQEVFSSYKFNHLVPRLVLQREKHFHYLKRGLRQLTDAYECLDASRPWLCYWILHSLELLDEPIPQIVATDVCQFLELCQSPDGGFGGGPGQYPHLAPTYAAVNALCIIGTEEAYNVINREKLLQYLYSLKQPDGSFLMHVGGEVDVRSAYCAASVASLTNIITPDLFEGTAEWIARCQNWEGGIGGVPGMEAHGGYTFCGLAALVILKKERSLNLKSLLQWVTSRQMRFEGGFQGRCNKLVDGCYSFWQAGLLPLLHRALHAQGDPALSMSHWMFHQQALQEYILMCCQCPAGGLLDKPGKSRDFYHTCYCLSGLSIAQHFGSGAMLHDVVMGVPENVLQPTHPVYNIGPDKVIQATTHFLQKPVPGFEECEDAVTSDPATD

The first assay has as its target T1, Rat brain protein farnesyltransferase (Rattus norvegicus, UniProt Q02293+Q04631).
T1 construct: Rat brain protein farnesyltransferase activity is measured; from tissue; host or cells: rat brain
Nature of the assay: % inhibition of farnesylation, scintillation proximity assay with biotin-K Ras B fragment. Particulars: Table 2; 1 × 10^-6 M. The class given is biochemical. From the text: The ability of the compounds of the invention to inhibit protein farnesyltransferase or protein geranylgeranyltransferase can be measured according to the method of Moores, et al., J. Biol. Chem. 266: 14603 (1991) or the method of Vogt, et al., J. Biol. Chem. 270:660-664 (1995). In addition, procedures for determination of the inhibition of farnesylation of the oncogene protein Ras are described by Goldstein, et al., J. Biol. Chem., 266:15575-15578 (1991) and by Singh in U.S. Pat. No. 5,245,061.
In addition, in vitro inhibition of protein farnesyltransferase may be measured by the following procedure. Rat brain protein farnesyltransferase activity is measured using an Amersham Life Science commercial scintillation proximity assay kit and substituting a biotin-K Ras B fragment (biotin-[…]CO2 H), 0.1 mM final concentration, for the biotin-lamin substrate provided by Amersham. The enzyme is purified according to Reiss, Y., et al., Cell, 62: 81-88 (1990), utilizing steps one through three.
The % inhibition of protein farnesyltransferase was determined for representative compounds of the invention.
On the technique in general: SPA uses beads or plates that emit light when radiolabelled molecules are held near them.
As to `Cc1ccccc1-c1cc(CCc2ccc(Oc3ccccc3)cc2)ccc1C(=O)N[C@@H](CC[S+](C)[O-])C(=O)O` (some centres unmarked) [Example 463], the “% inhibition at 1 × 10^-6 M” value came to 91%. Same read-out and setting: with `CSCC[C@H](NC(=O)c1ccc(/C=C/c2ccc3ccccc3c2)cc1-c1ccccc1C)C(=O)O` [Example 465] the figure was 92%; with `CSCC[C@H](NC(=O)c1ccc(/C=C/c2cccc3ccccc23)cc1-c1ccccc1C)C(=O)O` [Example 466], 93%; with `CSCC[C@H](NC(=O)c1ccc(CCc2cccc3ccccc23)cc1-c1ccccc1C)C(=O)[O-].[Li+]` [Example 467], 97%. As for `CSCC[C@H](NC(=O)c1ccc(CCc2ccc3ccccc3c2)cc1-c1ccccc1C)C(=O)O` [Example 468], the “% inhibition at 1 × 10^-6 M” value was determined as 96%.

Turning to `CSCC[C@H](NC(=O)c1ccc(C=CCc2ccccc2)cc1-c1ccccc1C)C(=O)O` [Example 469], the “% inhibition at 1 × 10^-6 M” value was found to be 92%.

For the molecule `CSCC[C@H](NC(=O)c1ccc(CCCc2ccc3ccccc3c2)cc1-c1ccccc1C)C(=O)[O-].[Li+]` [Example 470], the “% inhibition at 1 × 10^-6 M” value amounted to 95%. The same measure, in the same setting: with `CSCC[C@H](NC(=O)c1ccc(/C=C/CC2CCCCC2)cc1-c1ccccc1C)C(=O)O` [Example 471] the figure was 94%; with `CSCC[C@H](NC(=O)c1ccc(/C=C/CCc2ccccc2)cc1-c1ccccc1C)C(=O)O` [Example 472], 97%; with `CSCC[C@H](NC(=O)c1ccc(CCCC(=O)c2ccc3ccccc3c2)cc1-c1ccccc1C)C(=O)O` [Example 473], 96%. The same measure, in the same setting: with `CSCC[C@H](NC(=O)c1ccc(/C=C/CC(O)c2ccc3ccccc3c2)cc1-c1ccccc1C)C(=O)O` (some centres unmarked) [Example 474] the figure was 92%. Still for that read-out and setting: for `CSCC[C@H](NC(=O)c1ccc(NCC(CO)(Cc2ccccc2)Cc2ccccc2)cc1-c1ccccc1C)C(=O)O` [Example 475] the value was 21%. Turning to `CSCC[C@H](NC(=O)c1ccc(NCC(CO)Cc2ccccc2)cc1-c1ccccc1C)C(=O)O` (some centres unmarked) [Example 476], the “% inhibition at 1 × 10^-6 M” value is on record as 91%.

As for `CSCC[C@H](NC(=O)c1ccc(CCCCC2CCCCC2)cc1-c1ccccc1C)C(=O)O` [Example 478], the “% inhibition at 1 × 10^-6 M” value is reported as 98%. The same measure, in the same setting: for `CSCC[C@H](NC(=O)c1ccc(NCC(CO)CC2CCCCC2)cc1-c1ccccc1C)C(=O)O` (some centres unmarked) [Example 479] the value was 95%; for `CSCC[C@H](NC(=O)c1ccc(C=CCCCc2ccccc2)cc1-c1ccccc1C)C(=O)O` [Example 480], 87%; for `CSCC[C@H](NC(=O)c1ccc(NC(=O)c2cnccc2C(F)(F)F)cc1-c1ccccc1C)C(=O)O` [Example 481], 95%. Regarding `CSCC[C@H](NC(=O)c1ccc(/C=C/c2cncnc2)cc1-c1ccccc1C)C(=O)O` [Example 494], the “% inhibition at 1 × 10^-6 M” value turned out to be 96%. Same read-out and setting: for `CSCC[C@H](NC(=O)c1ccc(/C=C/c2cnccn2)cc1-c1ccccc1C)C(=O)O` [Example 495] the value was 95%. Take `CSCC[C@H](NC(=O)c1ccc(C=CCc2ccc3ccccc3c2)cc1-c1ccccc1C)C(=O)O` [Example 496]: the “% inhibition at 1 × 10^-6 M” value is listed as 93%. Still for that read-out and setting: with `CSCC[C@H](NC(=O)c1ccc(NCCO)cc1-c1ccccc1)C(=O)O` [Example 502] the figure was 24%; with `CSCC[C@H](NC(=O)c1ccc(NC(=O)[C@@H](N)COCc2ccccc2)cc1-c1ccccc1)C(=O)O` [Example 503], 57%. Still for that read-out and setting: for `CSCC[C@H](NC(=O)c1ccc(CN(Cc2ccccc2)Cc2ccco2)cc1-c1ccccc1C)C(=O)O` [Example 504] the value was 90%; for `CSCC[C@H](NC(=O)c1ccc(CN(CCO)c2ccccc2)cc1-c1ccccc1)C(=O)O` [Example 505], 72%. On the same count and under the same terms, with `CSCC[C@H](NC(=O)c1ccc(CN(CCc2ccccc2)c2ccccc2)cc1-c1ccccc1C)C(=O)O` [Example 507] the figure was 96%; with `CSCC[C@H](NC(=O)c1ccc(CN(CCCc2ccccc2)c2ccccc2)cc1-c1ccccc1C)C(=O)O` [Example 508], 95%; with `CSCC[C@H](NC(=O)c1ccc(CN(CC(c2ccccc2)c2ccccc2)c2ccccc2)cc1-c1ccccc1C)C(=O)O` [Example 509], 77%. Turning to `CSCC[C@H](NC(=O)c1ccc(CN(CC23CC4CC(CC(C4)C2)C3)c2ccccc2)cc1-c1ccccc1C)C(=O)O` [Example 510], the “% inhibition at 1 × 10^-6 M” value worked out at 84%. The same measure, in the same setting: for `CSCC[C@H](NC(=O)c1ccc(CN(Cc2ccccc2)Cc2ccccc2)cc1-c1ccccc1C)C(=O)O` [Example 512] the value was 94%. Take `CSCC[C@H](NC(=O)c1ccc(CN(CCc2ccccc2)Cc2ccccc2)cc1-c1ccccc1C)C(=O)O` [Example 513]: the “% inhibition at 1 × 10^-6 M” value came to 96%. Still for that read-out and setting: for `CSCC[C@H](NC(=O)c1ccc(CN(Cc2ccccc2)Cc2cccc(Oc3ccccc3)c2)cc1-c1ccccc1C)C(=O)O` [Example 514] the value was 94%; for `CSCC[C@H](NC(=O)c1ccc(CN(CCO)Cc2ccccc2)cc1-c1ccccc1)C(=O)O` [Example 515], 72%. As to `CSCC[C@H](NC(=O)c1ccc(CN(C)CCc2ccccc2)cc1-c1ccccc1C)C(=O)O` [Example 516], the “% inhibition at 1 × 10^-6 M” value came to 95%.

On to `CSCC[C@H](NC(=O)c1ccc(CNC(CC2CCCCC2)C(O)C(O)CC(C)C)cc1-c1ccccc1C)C(=O)O` (some centres unmarked) [Example 528], for which the “% inhibition at 1 × 10^-6 M” value is recorded as 99%.

Still in this assay, the particulars now being: Table 3; 1 × 10^-7 M.
Consider `CSCC[C@H](NC(=O)c1ccc(CCc2ccc(Oc3ccccc3)cc2)cc1-c1ccccc1C)C(=O)[O-].[Li+]` [Example 462], for which the “% inhibition at 1 × 10^-7 M” value is 91%. Regarding `CSCC[C@H](NC(=O)c1ccc(C#Cc2cncnc2)cc1-c1ccccc1C)C(=O)[O-].[Li+]` [Example 493], the “% inhibition at 1 × 10^-7 M” value was 51%. As for `CSCC[C@H](NC(=O)c1ccc(CN(CCC23CC4CC(CC(C4)C2)C3)c2ccccc2)cc1-c1ccccc1C)C(=O)O` [Example 511], the “% inhibition at 1 × 10^-7 M” value was 82%. Same read-out and setting: with `CSCC[C@H](NC(=O)c1ccc(CNCCc2c[nH]c3ccccc23)cc1-c1ccccc1C)C(=O)O` [Example 519] the figure was 89%. On to `CSCC[C@H](NC(=O)c1ccc(CN[C@H](CO)C2CCCCC2)cc1-c1ccccc1C)C(=O)O` [Example 520], for which the “% inhibition at 1 × 10^-7 M” value came to 97%. With `CSCC[C@H](NC(=O)c1ccc(CNC(Cc2ccccc2)Cc2ccccc2)cc1-c1ccccc1C)C(=O)O` [Example 523], the “% inhibition at 1 × 10^-7 M” value came to 97%.

Take `CSCC[C@H](NC(=O)c1ccc(CNC(CC2CCCCC2)CC2CCCCC2)cc1-c1ccccc1C)C(=O)O` [Example 524]: the “% inhibition at 1 × 10^-7 M” value worked out at 99%. The same measure, in the same setting: with `CSCC[C@H](NC(=O)c1ccc(CN[C@H](/C=C\CC(C)C)CC2CCCCC2)cc1-c1ccccc1C)C(=O)O` [Example 526] the figure was 96%; with `CSCC[C@H](NC(=O)c1ccc(CN[C@H](CCCC(C)C)CC2CCCCC2)cc1-c1ccccc1C)C(=O)O` [Example 527], 97%.

The assay is the same for the next values; noted with them: Table 4; 1 × 10^-8 M.
`CSCC[C@H](NC(=O)c1ccc(CN(CCc2ccccc2)c2cncnc2)cc1-c1ccccc1C)C(=O)O` [Example 518]: the “% inhibition at 1 × 10^-8 M” value is 90%.

Still in this assay, the particulars now being: read-out: % inhibition at 1 × 10^-6 M; Table 2; 1 × 10^-6 M.
Consider `CSCC[C@H](NC(=O)c1ccc(Sc2ccc3ccccc3c2)cc1-c1ccccc1C)C(=O)O` [Example 497, N-[4-(naphth-2-ylthio)-2-(2-methylphenyl)benzoyl]methionine], for which the inhibition at 1 µM was 94%. Regarding `CSCC[C@H](NC(=O)c1ccc(SCCc2ccccc2)cc1-c1ccccc1C)C(=O)O` [Example 498, N-[4-(2-phenylethylthio)-2-(2-methylphenyl)benzoyl]methionine], the inhibition at 1 µM amounted to 98%.

Take `CCOC[C@H](CC1CCCCC1)OCc1ccc(C(=O)N[C@@H](CCSC)C(=O)O)c(-c2ccccc2C)c1` [Example 525, N-[4-(3-Cyclohexyl-1-ethoxypropan-2-yl)oxymethyl-2-(2-methylphenyl)benzoyl]methionine lithium salt]: the inhibition at 1 µM was 99%. Take `CSCC[C@H](NC(=O)c1ccc(COCc2ccoc2)cc1-c1ccccc1C)C(=O)O` [Example 530, N-[4-(furan-3-ylmethoxymethyl)-2-(2-methylphenyl)benzoyl]methionine litihium salt]: the inhibition at 1 µM amounted to 94%.

Staying with this assay, now noted: read-out: % inhibition at 1 × 10^-7 M.
Consider `CSCC[C@H](NC(=O)c1ccc(COC(Cc2ccccc2)Cc2ccccc2)cc1-c1ccccc1C)C(=O)O` [Example 522, N-[4-(1,3-diphenylpropan-2-yl)oxymethyl-2-(2-methylphenyl)benzoyl]methionine lithium salt], for which the inhibition at 0.1 µM was 93%.

Still in this assay, the particulars now being: read-out: % inhibition at 1 × 10^-7 M; Table 3; 1 × 10^-7 M.
In the case of `C=C(C)C1CC=C(COCc2ccc(C(=O)N[C@@H](CCSC)C(=O)O)c(-c3ccccc3C)c2)CC1` (some centres unmarked) [Example 521, N-[4-(4-isoprop-2-enylcyclohexen-1-yl)methoxymethyl-2-(2-methylphenyl)benzoyl]methionine lithium salt], the inhibition at 0.1 µM was found to be 94%.

As a reminder, the % inhibition is the drop in the measured response relative to a control, in per cent. Broadly, the inhibition is the relative decrease from the control value, in per cent.
